Reference: patent US7118895B2, “Process for producing aglycon by using diglycosidase and flavor-improved food containing the aglycon and converting agent to be used in the process” (Amano Enzyme Inc., priority 2000, dated 2006)

How the values were obtained:
[1] = tested on: Diglycosidase derived from P. multicolor; experiment: Reactivity toward various isoflavone glycosides (HPLC); type: biochemical, Penicillium multicolor; set-up: glucoside / aglycon: unit not given here; details: 55 °C, pH 4.0
Procedure, shortened: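 Aglycone liberation was measured by reversed-phase HPLC (260 nm, calibration-curve quantitation) after ethanol extraction at 0, 1, 3 and 6 h. Reactions ran at 55° C, pH 4.0 (20 mM acetate), with each glycoside (from 2 mM methanol stock) and 0.75 AU/mL enzyme solution.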

[2] = tested on: Crude diglycosidase; experiment: Examination of substrate concentration in the conversion into isoflavone aglycons by diglycosidase using soybean materials; type: biochemical, Penicillium multicolor IAM7153;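 note: percent of the isoflavone family total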
Procedure, shortened: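 Reaction at 55° C, shaken, pH 4.0 (20 mM acetate), using crude diglycosidase from a 1.88 AU/mL enzyme solution on soy flour, soymilk, defatted soybean or soy protein concentrate at 2, 5, 10, 20 or 30% (w/v). Isoflavone aglycons quantified by HPLC of ethanol extracts at 0, 1, 3, 6 h.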

Question: `O=C(O)CC(=O)OC[C@H]1O[C@@H](Oc2cc(O)c3c(=O)c(-c4ccc(O)cc4)coc3c2)[C@H](O)[C@@H](O)[C@@H]1O` [malonylgenistin, 6″-O-malonylgenistin] was tested. Which aglycon ([1]; Reaction time 0 h) did it give?
Answer: The aglycon was 0.

Question: What about the glucoside ([1]; Reaction time 0 h) of the same molecule?
Answer: Its glucoside is 100.

Question: And the aglycon ([1]; Reaction time 1 h)?
Answer: Its aglycon is 74.2.

Question: What about the glucoside ([1]; Reaction time 1 h) of the same molecule?
Answer: Its glucoside is 25.8.

Question: What about the aglycon ([1]; Reaction time 3 h) of the same molecule?
Answer: The aglycon was 82.1.

Question: What about the glucoside ([1]; Reaction time 3 h) of the same molecule?
Answer: The glucoside was 17.9.

Question: What about the aglycon ([1]; Reaction time 6 h) of the same molecule?
Answer: Its aglycon is 82.3.

Question: What about the glucoside ([1]; Reaction time 6 h) of the same molecule?
Answer: Its glucoside is 17.7.

Question: What about the “Decomposition efficiency: ratio of each glycoside/aglycon within its isoflavone family” value ([2]; concentrated soybean protein, substrate concentration 2%, heat treatment of enzyme no, reaction time 0 h) of the same molecule?
Answer: The value was “not detected”.

Question: What about the “Decomposition efficiency: ratio of each glycoside/aglycon within its isoflavone family” value ([2]; concentrated soybean protein, substrate concentration 2%, heat treatment of enzyme no, reaction time 1 h) of the same molecule?
Answer: The value was “not detected”.

Question: And the “Decomposition efficiency: ratio of each glycoside/aglycon within its isoflavone family” value ([2]; concentrated soybean protein, substrate concentration 2%, heat treatment of enzyme no, reaction time 3 h)?
Answer: The value was “not detected”.

Question: And the “Decomposition efficiency: ratio of each glycoside/aglycon within its isoflavone family” value ([2]; concentrated soybean protein, substrate concentration 2%, heat treatment of enzyme no, reaction time 6 h)?
Answer: The value was “not detected”.

Question: And the “Decomposition efficiency: ratio of each glycoside/aglycon within its isoflavone family” value ([2]; concentrated soybean protein, substrate concentration 2%, heat treatment of enzyme yes, reaction time 6 h)?
Answer: Its value is “not detected”.

Question: And the “Decomposition efficiency: ratio of each glycoside/aglycon within its isoflavone family” value ([2]; concentrated soybean protein, substrate concentration 5%, heat treatment of enzyme no, reaction time 0 h)?
Answer: Its value is “not detected”.

Question: And the “Decomposition efficiency: ratio of each glycoside/aglycon within its isoflavone family” value ([2]; concentrated soybean protein, substrate concentration 5%, heat treatment of enzyme no, reaction time 1 h)?
Answer: Its value is “not detected”.

Question: And the “Decomposition efficiency: ratio of each glycoside/aglycon within its isoflavone family” value ([2]; concentrated soybean protein, substrate concentration 5%, heat treatment of enzyme no, reaction time 3 h)?
Answer: The value was “not detected”.

Question: And the “Decomposition efficiency: ratio of each glycoside/aglycon within its isoflavone family” value ([2]; concentrated soybean protein, substrate concentration 5%, heat treatment of enzyme no, reaction time 6 h)?
Answer: Its value is “not detected”.

Question: What about the “Decomposition efficiency: ratio of each glycoside/aglycon within its isoflavone family” value ([2]; concentrated soybean protein, substrate concentration 5%, heat treatment of enzyme yes, reaction time 6 h) of the same molecule?
Answer: Its value is “not detected”.

Question: What about the “Decomposition efficiency: ratio of each glycoside/aglycon within its isoflavone family” value ([2]; concentrated soybean protein, substrate concentration 10%, heat treatment of enzyme no, reaction time 0 h) of the same molecule?
Answer: The value was “not detected”.

Question: And the “Decomposition efficiency: ratio of each glycoside/aglycon within its isoflavone family” value ([2]; concentrated soybean protein, substrate concentration 10%, heat treatment of enzyme no, reaction time 1 h)?
Answer: Its value is “not detected”.

Question: What about the “Decomposition efficiency: ratio of each glycoside/aglycon within its isoflavone family” value ([2]; concentrated soybean protein, substrate concentration 10%, heat treatment of enzyme no, reaction time 3 h) of the same molecule?
Answer: The value was “not detected”.

Question: What about the “Decomposition efficiency: ratio of each glycoside/aglycon within its isoflavone family” value ([2]; concentrated soybean protein, substrate concentration 10%, heat treatment of enzyme no, reaction time 6 h) of the same molecule?
Answer: The value was “not detected”.

Question: And the “Decomposition efficiency: ratio of each glycoside/aglycon within its isoflavone family” value ([2]; concentrated soybean protein, substrate concentration 10%, heat treatment of enzyme yes, reaction time 6 h)?
Answer: The value was “not detected”.

Question: What about the “Decomposition efficiency: ratio of each glycoside/aglycon within its isoflavone family” value ([2]; concentrated soybean protein, substrate concentration 20%, heat treatment of enzyme no, reaction time 0 h) of the same molecule?
Answer: The value was “not detected”.

Question: And the “Decomposition efficiency: ratio of each glycoside/aglycon within its isoflavone family” value ([2]; concentrated soybean protein, substrate concentration 20%, heat treatment of enzyme no, reaction time 1 h)?
Answer: The value was “not detected”.

Question: What about the “Decomposition efficiency: ratio of each glycoside/aglycon within its isoflavone family” value ([2]; concentrated soybean protein, substrate concentration 20%, heat treatment of enzyme no, reaction time 3 h) of the same molecule?
Answer: Its value is “not detected”.

Question: What about the “Decomposition efficiency: ratio of each glycoside/aglycon within its isoflavone family” value ([2]; concentrated soybean protein, substrate concentration 20%, heat treatment of enzyme no, reaction time 6 h) of the same molecule?
Answer: The value was “not detected”.

Question: What about the “Decomposition efficiency: ratio of each glycoside/aglycon within its isoflavone family” value ([2]; concentrated soybean protein, substrate concentration 20%, heat treatment of enzyme yes, reaction time 6 h) of the same molecule?
Answer: Its value is “not detected”.

Question: What about the “Decomposition efficiency: ratio of each glycoside/aglycon within its isoflavone family” value ([2]; concentrated soybean protein, substrate concentration 30%, heat treatment of enzyme no, reaction time 0 h) of the same molecule?
Answer: Its value is “not detected”.

Question: What about the “Decomposition efficiency: ratio of each glycoside/aglycon within its isoflavone family” value ([2]; concentrated soybean protein, substrate concentration 30%, heat treatment of enzyme no, reaction time 1 h) of the same molecule?
Answer: The value was “not detected”.

Question: And the “Decomposition efficiency: ratio of each glycoside/aglycon within its isoflavone family” value ([2]; concentrated soybean protein, substrate concentration 30%, heat treatment of enzyme no, reaction time 3 h)?
Answer: Its value is “not detected”.

Question: What about the “Decomposition efficiency: ratio of each glycoside/aglycon within its isoflavone family” value ([2]; concentrated soybean protein, substrate concentration 30%, heat treatment of enzyme no, reaction time 6 h) of the same molecule?
Answer: The value was “not detected”.

Question: What about the “Decomposition efficiency: ratio of each glycoside/aglycon within its isoflavone family” value ([2]; concentrated soybean protein, substrate concentration 30%, heat treatment of enzyme yes, reaction time 6 h) of the same molecule?
Answer: Its value is “not detected”.

Question: And the “Decomposition efficiency: ratio of each glycoside/aglycon within its isoflavone family” value ([2]; roasted soy flour, substrate concentration 2%, heat treatment of enzyme no, reaction time 0 h)?
Answer: The value was “not detected”.

Question: What about the “Decomposition efficiency: ratio of each glycoside/aglycon within its isoflavone family” value ([2]; roasted soy flour, substrate concentration 2%, heat treatment of enzyme no, reaction time 1 h) of the same molecule?
Answer: Its value is “not detected”.

Question: What about the “Decomposition efficiency: ratio of each glycoside/aglycon within its isoflavone family” value ([2]; roasted soy flour, substrate concentration 2%, heat treatment of enzyme no, reaction time 3 h) of the same molecule?
Answer: Its value is “not detected”.

Question: What about the “Decomposition efficiency: ratio of each glycoside/aglycon within its isoflavone family” value ([2]; roasted soy flour, substrate concentration 2%, heat treatment of enzyme no, reaction time 6 h) of the same molecule?
Answer: Its value is “not detected”.

Question: And the “Decomposition efficiency: ratio of each glycoside/aglycon within its isoflavone family” value ([2]; roasted soy flour, substrate concentration 2%, heat treatment of enzyme yes, reaction time 6 h)?
Answer: The value was “not detected”.

Question: What about the “Decomposition efficiency: ratio of each glycoside/aglycon within its isoflavone family” value ([2]; roasted soy flour, substrate concentration 5%, heat treatment of enzyme no, reaction time 0 h) of the same molecule?
Answer: Its value is “not detected”.

Question: And the “Decomposition efficiency: ratio of each glycoside/aglycon within its isoflavone family” value ([2]; roasted soy flour, substrate concentration 5%, heat treatment of enzyme no, reaction time 1 h)?
Answer: Its value is “not detected”.

Question: And the “Decomposition efficiency: ratio of each glycoside/aglycon within its isoflavone family” value ([2]; roasted soy flour, substrate concentration 5%, heat treatment of enzyme no, reaction time 3 h)?
Answer: Its value is “not detected”.

Question: What about the “Decomposition efficiency: ratio of each glycoside/aglycon within its isoflavone family” value ([2]; roasted soy flour, substrate concentration 5%, heat treatment of enzyme no, reaction time 6 h) of the same molecule?
Answer: Its value is “not detected”.

Question: What about the “Decomposition efficiency: ratio of each glycoside/aglycon within its isoflavone family” value ([2]; roasted soy flour, substrate concentration 5%, heat treatment of enzyme yes, reaction time 6 h) of the same molecule?
Answer: The value was “not detected”.

Question: And the “Decomposition efficiency: ratio of each glycoside/aglycon within its isoflavone family” value ([2]; roasted soy flour, substrate concentration 10%, heat treatment of enzyme no, reaction time 0 h)?
Answer: Its value is “not detected”.

Question: What about the “Decomposition efficiency: ratio of each glycoside/aglycon within its isoflavone family” value ([2]; roasted soy flour, substrate concentration 10%, heat treatment of enzyme no, reaction time 1 h) of the same molecule?
Answer: The value was “not detected”.

Question: And the “Decomposition efficiency: ratio of each glycoside/aglycon within its isoflavone family” value ([2]; roasted soy flour, substrate concentration 10%, heat treatment of enzyme no, reaction time 3 h)?
Answer: Its value is “not detected”.

Question: And the “Decomposition efficiency: ratio of each glycoside/aglycon within its isoflavone family” value ([2]; roasted soy flour, substrate concentration 10%, heat treatment of enzyme no, reaction time 6 h)?
Answer: The value was “not detected”.

Question: And the “Decomposition efficiency: ratio of each glycoside/aglycon within its isoflavone family” value ([2]; roasted soy flour, substrate concentration 10%, heat treatment of enzyme yes, reaction time 6 h)?
Answer: The value was “not detected”.

Question: And the “Decomposition efficiency: ratio of each glycoside/aglycon within its isoflavone family” value ([2]; roasted soy flour, substrate concentration 20%, heat treatment of enzyme no, reaction time 0 h)?
Answer: The value was “not detected”.
